Measurements reported in patent publication US12338244B2, “Temozolomide compounds, polymers prepared therefrom, and method of treating a disease” (University of Massachusetts, priority 2016, dated 2025).
pIC50: −log10 of the molar value.

Legend:
[1] = Stability of TMZ in organic solvents by UV-Vis spectroscopy; format: physicochemical; conditions: 0.01 mg/ml in 1:1 MeOH:DMSO
Method: This observation prompted investigation of the stability of TMZ in organic solvents, a property not previously reported to our knowledge. Solutions of TMZ (0.01 milligram per milliliter concentration) in 1:1 MeOH:DMSO, DMSO, ACN, and 2,2,2-trifluoroethanol (TFE) were incubated at room temperature, as well as elevated temperatures (e.g., 50° C. and 70° C.). […] The marked difference in stability of TMZ observed between MeOH and TFE was attributed to the poor nucleophilicity of the latter, which precludes rapid imidazotetrazine solvolysis.

U87MG cells = assay: CellTiter-Glo luminescent cell viability assay, cytotoxic effects on glioblastoma cell line; format: cell-based; conditions: Homo sapiens, U-87 MG, 168 h; U87MG (TMZ sensitive) cells, Day 7, doses 0-10000 μM
Method: Testing of the cytotoxic effects of polyMPC-TMZ on glioblastoma (GBM) cell lines utilized U87MG (TMZ sensitive cell line) and T98G (TMZ-resistant cell line). […] U87MG cells were plated on 96 well plates and cultured overnight in DMEM media containing 10% FBS at 37° C. in a CO2 incubator. The cells were treated with different doses of TMZ (0-10000 μM), polyMPC-TMZ-17% (random copolymer with 17 mole percent TMZ monomer) (0-10000 μM), polyMPC-TMZ-26% (random copolymer with 26% TMZ monomer) (0-10000 μM), polyMPC-TMZ-33% (random copolymer with 33% TMZ monomer) (0-10000 μM) or polyMPC-TMZ-50% random copolymer with 50 mole percent TMZ monomer) (0-10000 μM) and cell viability was tested on Day 7 using the CellTiter-Glo luminescent cell viability assay purchased from Promega, Inc. PolyMPC itself was used as a control polymer. […] All of the polyMPC-TMZ conjugates were efficacious, with a modified toxicity response as is typical of polymer prodrugs which mask the toxicity of the drug prior to making them available to the tumor. […] The higher IC50 values of polyMPC-TMZ will allow for introduction of larger drug doses in in vivo experiments.

degradation in MeOH:DMSO mixture, heated ([1]; 50° C. or 70° C., after 1 hour): fully degraded
degradation in MeOH:DMSO mixture, room temperature ([1]; room temperature): significant degradation
Structure (SMILES): Cn1nnc2c(C(N)=O)ncn2c1=O [TMZ, Temozolomide]
pIC50 (U87MG cells): ~3.72
